In article PMC8848500 (Bioorganic & medicinal chemistry, 2020):

What was measured:
[1] = biological target: T1, human neutrophil elastase (HNE) (Homo sapiens, UniProt P08246); experiment: HNE inhibition assay; assay type: biochemical
T1 sequence (P08246 30-267): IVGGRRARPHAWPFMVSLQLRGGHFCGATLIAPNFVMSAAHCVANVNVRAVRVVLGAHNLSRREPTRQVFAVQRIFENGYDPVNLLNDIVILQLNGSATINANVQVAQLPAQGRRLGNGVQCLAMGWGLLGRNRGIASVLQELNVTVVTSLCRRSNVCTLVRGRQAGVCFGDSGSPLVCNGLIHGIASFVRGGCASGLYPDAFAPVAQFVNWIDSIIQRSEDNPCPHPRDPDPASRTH

[2] = Chemical stability at room temperature; assay type: physicochemical; conditions: conversion to precursors 14 and 18

Row | SMILES | IC50 [1] [µM] | further results
1 | N#Cc1nn(C(=O)C2CCCCC2)c2ncccc12 [Compound 2i, 1-(Cyclohexanecarbonyl)-1H-pyrazolo[3,4-b]pyridine-3-carbonitrile] | – | HNE inhibitory activity (in words) [1]: loss of activity
2 | N#Cc1nn(Cc2ccccc2)c2ncccc12 [Compound 2c, 1-Benzyl-1H-pyrazolo[3,4-b]pyridine-3-carbonitrile] | > 50 | HNE inhibitory activity (in words) [1]: complete loss of HNE inhibitory activity
3 | O=C(Nc1nn(C(=O)C2CC2)c2ncccc12)C1CC1 [Compound 7, N-(1-(Cyclopropanecarbonyl)-1H-pyrazolo[3,4-b]pyridin-3-yl)cyclopropanecarboxamide] | 1.5 ± 0.14 | –
4 | Cc1cccc(C(=O)n2cc(C#N)c3ccncc32)c1 [Compound 13e, 1-(3-Methylbenzoyl)-1H-pyrrolo[2,3-c]pyridine-3-carbonitrile] | – | HNE inhibitory activity (in words) [1]: reduced activity compared to the reference compounds B and C
5 | COc1cccc(NC(=O)c2cnc3cc(C(C)(C)C)nn3c2C)c1 [Compound 22b, 2-(tert-Butyl)-N-(3-methoxyphenyl)-7-methylpyrazolo[1,5-a]pyrimidine-6-carboxamide] | > 50 | –
6 | N#Cc1cn(C(=O)C2CC2)c2cnccc12 [Compound 13f, 1-(Cyclopropanecarbonyl)-1H-pyrrolo[2,3-c]pyridine-3-carbonitrile] | – | HNE inhibitory activity (in words) [1]: reduced activity compared to the reference compounds B and C
7 | COc1cccc(CNC(=O)c2cnc3cc(C(C)(C)C)nn3c2C)c1 [Compound 22e, 2-(tert-Butyl)-N-(3-methoxybenzyl)-7-methylpyrazolo[1,5-a]pyrimidine-6-carboxamide] | > 50 | –
8 | Cc1cccc(C(=O)n2ccc3nccnc32)c1 [Compound 15a, (5H-Pyrrolo[2,3-b]pyrazin-5-yl)(m-tolyl)methanone] | – | chemical stability [2]: not chemically stable
9 | COc1cccc(NC(=O)c2cnc3c(Cl)c(C(C)(C)C)nn3c2C)c1 [Compound 22c, 2-(tert-Butyl)-3-chloro-N-(3-methoxyphenyl)-7-methylpyrazolo[1,5-a]pyrimidine-6-carboxamide] | > 50 | –
10 | COc1cccc(NC(=O)c2cnc3cc(C)nn3c2C)c1 [Compound 22a, N-(3-Methoxyphenyl)-2,7-dimethylpyrazolo[1,5-a]pyrimidine-6-carboxamide] | > 50 | –
11 | COc1cccc(CNC(=O)c2cnc3cc(C)nn3c2C)c1 [Compound 22d, N-(3-Methoxybenzyl)-2,7-dimethylpyrazolo[1,5-a]pyrimidine-6-carboxamide] | > 50 | –
12 | N#Cc1nn(C(=O)c2ccccc2)c2ncccc12 [Compound 2d, 1-Benzoyl-1H-pyrazolo[3,4-b]pyridine-3-carbonitrile] | 0.14 | –
13 | Cc1cccc(C(=O)n2cc(C#N)c3nccnc32)c1 [Compound 19a, 5-(3-Methylbenzoyl)-5H-pyrrolo[2,3-b]pyrazine-7-carbonitrile] | – | chemical stability [2]: not chemically stable
14 | COc1cccc(CNC(=O)c2cnc3c(Cl)c(C(C)(C)C)nn3c2C)c1 [Compound 22f, 2-(tert-Butyl)-3-chloro-N-(3-methoxybenzyl)-7-methylpyrazolo[1,5-a]pyrimidine-6-carboxamide] | > 50 | –
15 | O=C(C1CC1)n1ccc2nccnc21 [Compound 15b, Cyclopropyl(5H-pyrrolo[2,3-b]pyrazin-5-yl)methanone] | – | HNE inhibitory activity (in words) [1]: reduced activity by two orders of magnitude
16 | CC(=O)n1nc(NC(=O)c2cccc(C)c2)c2cccnc21 [Compound 9, N-(1-Acetyl-1H-pyrazolo[3,4-b]pyridin-3-yl)-3-methylbenzamide] | 25.2 ± 1.3 | –
17 | Cc1cccc(C(=O)n2nc(C#N)c3cccnc32)c1 [Compound 2e, 1-(3-Methylbenzoyl)-1H-pyrazolo[3,4-b]pyridine-3-carbonitrile] | – | fold less potent than A ([1]; HNE IC50 versus reference A): 47 fold
